Experiment [1] deals with washed human platelets (collagen). The experiment in a line: Light transmission aggregometry of TAT-peptide-loaded platelets, collagen. In kind it is cell-based. Particulars: vehicle (DMSO) control; light transmission aggregometry. The procedure:
(§1) Whole blood was taken from healthy volunteers and collected into 50 ml syringes containing 5 ml acid citrate-dextrose (ACD) in accordance with procedures approved by the Local Research Ethics Committee (Ref: 07/Q1603/17). Platelet-rich plasma (PRP) was isolated by centrifugation at 200 g for 10 minutes at room temperature. PRP was pooled and 10 µg PGI2 was added before centrifugation at 1000 g for 10 minutes at room temperature. Platelets were resuspended in 1 ml Tyrodes buffer (134 mM NaCl, 0.34 mM Na2HPO4, 2.9 mM KCl, 12 mM NaHCO3, 20 mM HEPES, 5 mM glucose, 1 mM MgCl2, pH 7.3) pre-warmed to 30°C and 150 µl ACD. The volume was adjusted to 25 ml with Tyrodes buffer, followed by 3 ml ACD and 1.25 µg PGI2. Cells were centrifuged at 1000 g for 10 minutes at room temperature and the resultant cell pellet was resuspended in 1 ml pre-warmed Tyrodes buffer before adjusting the volume to a final cell density of 4×10^8 cells/ml (aggregations) or 2×10^9 cells/ml (peptide pull downs). Where appropriate, 1 mM EGTA, 10 µM indomethacin and 2 U/ml apyrase were added to inhibit aggregations (referred to as non-aggregating conditions).
(§2) Fluorescein-labelled, TAT-G6B-b peptides were synthesised by Peptide Protein Research Ltd (Hampshire, U.K.). Peptides were either unphosphorylated, or phosphorylated at both ITIMs as follows: Dual phosphorylated peptide – FLUO- […]*[…]*AVVV or unphosphorylated control peptide (lacking tyrosine phosphorylation) - FLUO- […]. TAT sequences are underlined and phosphorylated tyrosines marked with an asterisk. Peptides were loaded into washed platelets by incubation with 10 µM peptide for 15 minutes at 30°C, after which they were assessed by light transmission aggregometry. Peptide loading conditions were optimised and verified by flow cytometry.
(§3) Washed human platelets were loaded with TAT-G6B-b peptides (either dual phosphorylated or unphosphorylated) and changes in CRP efficacy determined by light transmission aggregometry. […] Thrombin-mediated activation was unaffected (data not shown). […] Peptide loading was verified by flow cytometry (Figure 9C and 9D.

The target in experiment [2] is T1, N-terminal SH2 domain of SHP-2 (Homo sapiens, UniProt Q06124).
T1 construct: SHP-2 (N)SH2 (His-tag) (OMC #3912); His-tag; host or cells: E. coli BL21(DE3)
T1 sequence (Q06124 6-102 limits assumed): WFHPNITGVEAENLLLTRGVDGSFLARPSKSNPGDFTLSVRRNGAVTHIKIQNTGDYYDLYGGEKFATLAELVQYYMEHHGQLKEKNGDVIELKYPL
The experiment in a line: SPR (BIAcore 3000), single N-terminal SH2 domain of SHP-2. In kind it is binding. The note with it: HBS pH 7.4, 37°C, 10 µl/min. The protocol: (§4) These proteins were expressed in BL21(DE3) cells (Invitrogen) induced with 1 mM IPTG for 4 hours at 37°C. Bacteria were pelleted and washed in PBS/0.5 M NaCl prior to sonication in PBS/0.5 M NaCl, in the presence of protease inhibitor cocktail (Complete, EDTA-free, Roche). Soluble and insoluble fractions were separated by centrifugation at 30,000 g for 60 minutes. Soluble fractions containing tagged proteins were incubated for 1 hour at 4°C with end-over-end mixing in the presence of washed Ni-Sepharose (GE Lifesceinces, Little Chalfont, U.K.) supplemented with 40 mM imidazole or Amylose resin (NEB, Herts, U.K). Proteins were eluted according to the manufacturer's instructions and purified by size exclusion chromatography on an AKTApurifier (GE Lifesciences, Little Chalfont, U.K).
Experiments were conducted on a BIAcore™ 3000 in HBS buffer (0.01 M HEPES, pH 7.4, containing 0.15 M NaCl, 3 mM EDTA, and 0.005% v/v P-20, GE Life Sciences, Amersham, UK). Streptavidin was coupled to a research grade CM5 chip (GE Life Sciences, Amersham, UK) as previously described, [13]. Protein-peptide interactions were carried out a rate of 10 µl/min at a constant temperature of 37°C to more accurately reflect physiological conditions. Biotinylated peptides were bound to the streptavidin-coated CM5 chips at 37°C to between 25–50 RU [14]. Purified monomeric SH2 domains were passed over the immobilised peptides at a range of concentrations. Anti-phosphotyrosine monoclonal antibody (Sigma, Poole, U.K.) was passed over the chip to saturation at the end of each experiment to verify peptide coverage on the chip. Binding affinities for the single ITIM/ITSM peptides were determined by plotting equilibrium binding measurements (RU) against SH2 domain protein concentration (Origin 8, OriginLab, MA, USA). KD was defined as the concentration of SH2 protein that gave half maximal binding to the peptide. […] KD was determined as Koff/Kon, which were determined using both GraphPad Prism 5.0 (GraphPad, La Jolla, CA, USA) and BIAevaluation Software (GE Life Sciences, Amersham,UK).
(In general: In SPR one partner is held on a chip, and binding of the other changes the refractive index at the surface.)

Experiment [3] relates to washed human platelets (CRP). The experiment in a line: Light transmission aggregometry of TAT-peptide-loaded platelets, CRP. In kind it is cell-based. The note with it: vehicle (DMSO) control; light transmission aggregometry. The protocol: as §1, §2, §3
Experiment [4] deals with G6B-b dual phosphopeptide. The experiment in a line: SPR (BIAcore 3000) of SHP-1/SHP-2 tandem SH2 domains over immobilised G6B-b phosphopeptide. In kind it is binding, human. The note with it: for Koff / Kd: HBS pH 7.4, 37°C, 50 µl/min; for Koff: Prism 5; for Kd: KD = Koff/Kon. The procedure:
Experiments were conducted on a BIAcore™ 3000 in HBS buffer (0.01 M HEPES, pH 7.4, containing 0.15 M NaCl, 3 mM EDTA, and 0.005% v/v P-20, GE Life Sciences, Amersham, UK). Streptavidin was coupled to a research grade CM5 chip (GE Life Sciences, Amersham, UK) as previously described, [13]. Protein-peptide interactions were carried out a rate of 10 µl/min at a constant temperature of 37°C to more accurately reflect physiological conditions. Biotinylated peptides were bound to the streptavidin-coated CM5 chips at 37°C to between 25–50 RU [14]. Purified monomeric SH2 domains were passed over the immobilised peptides at a range of concentrations. Anti-phosphotyrosine monoclonal antibody (Sigma, Poole, U.K.) was passed over the chip to saturation at the end of each experiment to verify peptide coverage on the chip. Binding affinities for the single ITIM/ITSM peptides were determined by plotting equilibrium binding measurements (RU) against SH2 domain protein concentration (Origin 8, OriginLab, MA, USA). KD was defined as the concentration of SH2 protein that gave half maximal binding to the peptide. For the 60-mer peptides, SH2 domains were passed over the chip surface at 50 µl/min. KD was determined as Koff/Kon, which were determined using both GraphPad Prism 5.0 (GraphPad, La Jolla, CA, USA) and BIAevaluation Software (GE Life Sciences, Amersham,UK).
Previous studies have shown that using single phosphomotifs (isolated from sequences in which they may exist in tandem) and single SH2 domains can be misleading, [16]. We, therefore, assessed phosphatase-G6B-b interactions in more detail using the tandem SH2 domains of both SHP-2 (Figure 4A) and SHP-1 (Figure 4B). We kinetically determined the binding affinity (KD = koff/kon) by SPR at physiological temperatures.

The test system of another experiment is endogenous G6B-b. The experiment in a line: Pull down of endogenous G6B-b from platelet lysate with purified SH2 domains. In kind it is binding. The note with it: washed human platelet lysates activated with CRP or thrombin. The protocol: as §4, with “Proteins were eluted according to the manufacturer's instructions and purified by size exclusion chromatography on an AKTApurifier (GE Lifesciences, Little Chalfont, U.K).” left out
Based on this study, the N-terminal SH2 domains of both SHP-1 and SHP-2 should preferentially bind to the ITIM (central pY at position 211) while the C-terminal domains should associate with the ITSM (pY at position 237). […] The N-terminal SH2 domain of SHP-1 was insoluble and it was not possible to purify sufficient quantities for binding studies. […]
(A) Peptide associated material was isolated from pre-cleared lysates separated on 4–12% NuPage Bis-Tris gels; proteins identified by Western Blotting (representative blots, n = 3). […] Bound material was separated from unbound material by SDS-PAGE and quantified (n = 3, SEM, ** denotes p<0.01, * denotes p<0.05). […]

Experiment [5] concerns G6B-b tyrosine phosphorylation. The experiment in a line: G6B-b tyrosine phosphorylation in washed human platelets (4G10 staining). In kind it is cell-based. The note with it: for G6B-b tyrosine phosphorylation: 1 µg/ml CRP, 5 minutes, 4G10 staining, n = 4; for state of G6B-b phosphorylation: PP2 5 µM, PP3 5 µM or pervanadate, 10 minutes. The protocol:
One microgram of antibody was bound to 10 µl of Protein A-sepharose (20 µl of a 50% slurry), in a final volume of 100 µl PBS, by incubation on a rotating wheel for 90 minutes at 4°C. Washed human platelets were incubated with either Tyrodes, 5 µM PP2, 5 µM PP3 or pervanadate for 10 minutes, after which they were pelleted and lysed in DP lysis buffer (20 mM Tris pH 7.5, 150 mM NaCl, 5 mM NaOV4, 1× Complete Protease Inhibitor (Roche) and 5% w/v n-Dodecyl-β-D-maltoside (Calbiochem)) such that each IP sample received 4×10^8 platelets in a final volume of 100 µl DP lysis buffer. Samples were mixed on a rotating wheel at 4°C for 1 hour. Samples were washed once in 200 µl DP lysis buffer and twice in 1 ml PBS prior to boiling in Laemmli buffer for 5 minutes.
We wanted to determine whether SHP-2 could associate with the receptor in human platelets as this interaction could relate to receptor function and regulation of GPVI signalling. […] In the absence of receptor agonists, we carried out co-immunoprecipitation experiments in platelet lysates treated with the SFK inhibitor, PP2, its non-active analogue, PP3, or the tyrosine phosphatase inhibitor, pervanadate. […] Under these conditions, isolation of […] by immunoprecipitation was robust (Figure 1B, top panel).
(A) Washed human platelets were incubated under stirring, but non-aggregating, conditions with the SFK inhibitor, PP2, or DMSO, prior to the addition of 1 µg/ml CRP or Tyrodes buffer. Samples were collected after 5 minutes. Tyrosine phosphorylation was detected by 4G10 staining (top panel, n = 4). […] (B) G6B-b co-immunoprecipitates with […] in pervanadate-treated washed human platelets.

Where two headings read alike, the source gives them in different places. Where no end group is shown, it is not given here. [ ]: non-standard residue; d: D form. pY = N[C@@H](Cc1ccc(OP(=O)(O)O)cc1)C(=O)O

As for collagen [reference compound], the “EC50 of collagen, vehicle control platelets” value in experiment [1] was 0.4 µg/mL.
With “PLVKTEPQRPVKEEEPKIPGDLDQEPSLL[pY]ADLDHLALSRPRRLSTADPADASTIYAVVV [pY211]”, in experiment [2] (equilibrium binding, single site fitting, read-out: KD), the Kd amounted to 110 nM.
As for “PLVKTEPQRPVKEEEPKIPGDLDQEPSLLYADLDHLALSRPRRLSTADPADASTI[pY]AVVV [pY237]”, in experiment [2] (read-out: KD, estimated by fixing maximum binding), the equilibrium dissociation constant (Kd) was 10000 nM.
For “collagen-related peptide [CRP, reference compound]”, the “EC50 of CRP, vehicle control platelets” value in experiment [3] came to 0.4 µg/mL.
Regarding “SHP-2: SHP-2 (N+C)SH2 domains, recombinant”, in experiment [4] (SPR, dual phosphopeptide), the “fold higher binding affinity of SHP-2 tandem SH2 domains than single N(SH2) domain” value is “approximately 200 fold”. Also, the Koff in experiment [4] (tandem SH2 domains 0.1 nM) stood at 0.0720 s⁻¹; in experiment [4] (tandem SH2 domains 1 nM) it was 0.1660 s⁻¹; in experiment [4] (tandem SH2 domains 10 nM), 0.0206 s⁻¹; in experiment [4] (tandem SH2 domains 100 nM) it was 0.0144 s⁻¹; in experiment [4] (tandem SH2 domains 1000 nM), 0.0106 s⁻¹. Further, the Kd is 0.474 nM in experiment [4] (tandem SH2 domains 0.1 nM); 0.624 nM in experiment [4] (tandem SH2 domains 1 nM); 0.145 nM in experiment [4] (tandem SH2 domains 10 nM); 0.528 nM in experiment [4] (tandem SH2 domains 100 nM); 0.634 nM in experiment [4] (tandem SH2 domains 1000 nM). For the same compound, in the experiment with endogenous G6B-b, the “isolation of endogenous G6B-b” value is given as “able to isolate G6B-b from platelet lysate”.
Consider `CC(C)(C)n1nc(-c2ccc(Cl)cc2)c2c(N)ncnc21` [PP2], for which, in experiment [5], the “G6B-b tyrosine phosphorylation” value was “reduced the G6B-b tyrosine phosphorylation in response to CRP” and the “state of G6B-b phosphorylation” value is reported as “non-phosphorylation”.
pervanadate: in experiment [5], the “state of G6B-b phosphorylation” value is “maximal phosphorylation”.
Consider `Nc1ncnc2c1cnn2-c1ccccc1` [PP3], for which, in experiment [5], the “G6B-b tyrosine phosphorylation” value was “no effect on tyrosine phosphorylation” and the “state of G6B-b phosphorylation” value is reported as “partial/sub-maximal”.
In the case of “SHP-1: SHP-1 (N+C)SH2 domains, recombinant”, the Koff in experiment [4] (tandem SH2 domains 0.1 nM) turned out to be 0.0104 s⁻¹; in experiment [4] (tandem SH2 domains 1 nM) it was 0.01106 s⁻¹; in experiment [4] (tandem SH2 domains 10 nM), 0.01141 s⁻¹; in experiment [4] (tandem SH2 domains 100 nM), 0.01025 s⁻¹; in experiment [4] (tandem SH2 domains 1000 nM), 0.00892 s⁻¹. Also, the Kd in experiment [4] (tandem SH2 domains 0.1 nM) is 43.3 nM; in experiment [4] (tandem SH2 domains 1 nM), 42.5 nM; in experiment [4] (tandem SH2 domains 10 nM), 20.3 nM; in experiment [4] (tandem SH2 domains 100 nM) it was 32 nM. Moreover, the “isolation of endogenous G6B-b” value in the experiment on endogenous G6B-b is “able to isolate endogenous G6B-b from platelet lysate”.

One may read the Kd as the equilibrium constant for the complex coming apart.
